{
  "source": "paper PMC11785708",
  "about": "“Design and synthesis of new quinazolinone derivatives: investigation of antimicrobial and biofilm inhibition effects” (Molecular Diversity, 2024)",
  "origin": "cited, not measured here",
  "test_system": "Candida albicans",
  "design": "method as in doi:10.1002/slct.201803795",
  "conditions": "read-out: anti-biofilm activity IC50; cited from earlier work",
  "note": "pIC50: −log10 of the molar value.",
  "data": [
    {"compound": "COc1cc(OC)c(-c2nc3ccccc3c(=O)[nH]2)c(OC)c1", "note": "[V]", "values": [
      {"measurement": "pIC50", "result": "> 4.52"}
    ]}
  ]
}
